Reference: patent US20100040566A1, “EMULSION” (Riemann Trading ApS, priority 2006, published 2010)

Assay: Determination of photo stability (Xenon arc lamp irradiation, HPLC of UV-filters)
Format: physicochemical
Details: for photo stability (in words): 3 MED/2 h irradiation; for Content of UV-Filter Substances, After irradiation [3MED/2 h], Found [%]: Xenon arc lamp, 3 MED after two hours, HPLC; for Content of UV-Filter Substances, Before irradiation, Found [%]: in sample prepared as in Example 1, HPLC; for Content of UV-Filter Substances, After irradiation [3MED/2 h], [%] rel.: relative to content before irradiation
Excerpt: The test sample are weighed and distributed evenly and homogeneously with a brush onto the marked area of a glass plate.
For the Irradiation we use a Xenon arc lamp because the continuous spectrum in the UV-region is near—identical to that of—natural light. The lamp is turned on approximately one hour before Irradiation.
The glass plate Is positioned under the lamp so that the square with the test sample is maximally illuminated.
The distance (lamp-glass plate) is acquired with the aid of a calibrated hand radiometer (PMA 2100) with UV-B detector. The radiant Intensity of the lamp on the sample is set up so that an Irradiation dose of 3 MED (Minimal Erythemal Dose) is given after two hours.
In order to ascertain to which extent each of the Individual UV-filters in the tested formulations has been photometrically degraded, they are analytically quantified before and after irradiation.
The instrumental-analytical method used is HPLC
Sample is prepared as described in Example 1

| photo stability (in words) | Content of UV-Filter Substances, After irradiation [3MED/2 h], Found [%] | Content of UV-Filter Substances, Before irradiation, Found [%] | Content of UV-Filter Substances, After irradiation [3MED/2 h], [%] rel. [%] | Structure (SMILES) |
| --- | --- | --- | --- | --- |
| relatively strong degradation |  |  |  | CCCCC(CC)COC(=O)C=Cc1ccc(OC)cc1 (stereo not drawn) [Ethylhexyl Methoxycinnamate] |
| very good value of photo stability | 1.21 | 1.29 | 93.8 | CCCCCCOC(=O)c1ccccc1C(=O)c1ccc(N(CC)CC)cc1O [Diethylamino Hydroxybenzoyl Hexyl Benzoate] |
| very good value of photo stability | 9.35 | 9.98 | 93.7 | CCCCC(CC)COC(=O)C(C#N)=C(c1ccccc1)c1ccccc1 (stereo not drawn) [Octocrylene] |
